System: GIST patients
Test: Example 3: safety, TEAEs in GIST patients at ≥100 mg daily
Format: in vivo, human
Experimental: Grade 3 or 4 treatment-emergent adverse events (TEAEs) in >5% of patients were lipase increased (18%; n=33), anemia (11%; n=20), hypertension (7%; n=13) and abdominal pain (6%; n=11). 13% of patients (n=24) experienced TEAEs leading to study treatment discontinuation, 17% of patients (n=31) experienced TEAEs leading to dose reduction and 49% of patients (n=88) had TEAEs leading to study drug interruption. Table 3 lists TEAEs>10% for GIST patients treated with ≥100 mg of ripretinib daily.

[1] = 1st column pair, head not printed (likely Grade 1/2)
[2] = 3rd column pair, head not printed (likely all grades)

SMILES: CCn1c(=O)c(-c2cc(NC(=O)Nc3ccccc3)c(F)cc2Br)cc2cnc(NC)cc21 [ripretinib]
- Patients with TEAEs leading to dose reduction, %: 17%
- Patients with TEAEs leading to dose reduction, number: 31
- Patients with TEAEs leading to study drug interruption, %: 49%
- Patients with TEAEs leading to study drug interruption, number: 88
- Patients with TEAEs leading to study treatment discontinuation, %: 13%
- Patients with TEAEs leading to study treatment discontinuation, number: 24
- Abdominal pain: patients, % [1]: (18%)
- Abdominal pain: patients, number [1]: 33
- Actinic keratosis: patients, % [1]: (14%)
- Actinic keratosis: patients, number [1]: 25
- Alopecia: patients, % [1]: (57%)
- Alopecia: patients, number [1]: 102
- Amylase increased: patients, % [1]: (11%)
- Amylase increased: patients, number [1]: 19
- Anemia: patients, % [1]: (10%)
- Anemia: patients, number [1]: 18
- Arthralgia: patients, % [1]: (22%)
- Arthralgia: patients, number [1]: 40
- Back Pain: patients, % [1]: (17%)
- Back Pain: patients, number [1]: 30
- Blood bilirubin increase: patients, % [1]: (9%)
- Blood bilirubin increase: patients, number [1]: 16
- Blood creatine phosphokinase increased: patients, % [1]: (7%)
- Blood creatine phosphokinase increased: patients, number [1]: 13
- Constipation: patients, % [1]: (37%)
- Constipation: patients, number [1]: 67
- Cough: patients, % [1]: (21%)
- Cough: patients, number [1]: 37
- Decreased appetite: patients, % [1]: (34%)
- Decreased appetite: patients, number [1]: 60
- Diarrhea: patients, % [1]: (28%)
- Diarrhea: patients, number [1]: 50
- Dizziness: patients, % [1]: (16%)
- Dizziness: patients, number [1]: 29
- Dry skin: patients, % [1]: (21%)
- Dry skin: patients, number [1]: 37
- Dysgeusia: patients, % [1]: (11%)
- Dysgeusia: patients, number [1]: 20
- Dyspnea: patients, % [1]: (18%)
- Dyspnea: patients, number [1]: 32
- Fatigue: patients, % [1]: (53%)
- Fatigue: patients, number [1]: 94
- Headache: patients, % [1]: (18%)
- Headache: patients, number [1]: 33
- Hypertension: patients, % [1]: (14%)
- Hypertension: patients, number [1]: 25
- Hypokalaemia: patients, % [1]: (12%)
- Hypokalaemia: patients, number [1]: 21
- Hypomagnesaemia: patients, % [1]: (10%)
- Hypomagnesaemia: patients, number [1]: 18
- Hypophosphataemia: patients, % [1]: (10%)
- Hypophosphataemia: patients, number [1]: 17
- Insomnia: patients, % [1]: (12%)
- Insomnia: patients, number [1]: 21
- Lipase increased: patients, % [1]: (10%)
- Lipase increased: patients, number [1]: 18
- Muscle spasms: patients, % [1]: (26%)
- Muscle spasms: patients, number [1]: 47
- Myalgia: patients, % [1]: (44%)
- Myalgia: patients, number [1]: 79
- Nausea: patients, % [1]: (43%)
- Nausea: patients, number [1]: 77
- Pain in extremity: patients, % [1]: (10%)
- Pain in extremity: patients, number [1]: 18
- Palmar-plantar erythrodysaesthesia syndrome: patients, % [1]: (40%)
- Palmar-plantar erythrodysaesthesia syndrome: patients, number [1]: 71
- Pruritus: patients, % [1]: (10%)
- Pruritus: patients, number [1]: 18
- Rash maculo-papular: patients, % [1]: (10%)
- Rash maculo-papular: patients, number [1]: 18
- Rash: patients, % [1]: (15%)
- Rash: patients, number [1]: 27
- Seborrhoeic keratosis: patients, % [1]: (12%)
- Seborrhoeic keratosis: patients, number [1]: 21
- Skin papilloma: patients, % [1]: (10%)
- Skin papilloma: patients, number [1]: 17
- Upper respiratory tract infection: patients, % [1]: (10%)
- Upper respiratory tract infection: patients, number [1]: 18
- Urinary tract infection: patients, % [1]: (9%)
- Urinary tract infection: patients, number [1]: 16
- Vision blurred: patients, % [1]: (10%)
- Vision blurred: patients, number [1]: 17
- Vomiting: patients, % [1]: (24%)
- Vomiting: patients, number [1]: 42
- Weight decreased: patients, % [1]: (29%)
- Weight decreased: patients, number [1]: 51
- Abdominal pain: patients, % [2]: (25%)
- Abdominal pain: patients, number [2]: 44
- Actinic keratosis: patients, % [2]: (14%)
- Actinic keratosis: patients, number [2]: 25
- Alopecia: patients, % [2]: (57%)
- Alopecia: patients, number [2]: 102
- Amylase increased: patients, % [2]: (12%)
- Amylase increased: patients, number [2]: 21
- Anemia: patients, % [2]: (21%)
- Anemia: patients, number [2]: 38
- Arthralgia: patients, % [2]: (22%)
- Arthralgia: patients, number [2]: 40
- Back Pain: patients, % [2]: (18%)
- Back Pain: patients, number [2]: 32
- Blood bilirubin increase: patients, % [2]: (12%)
- Blood bilirubin increase: patients, number [2]: 21
- Blood creatine phosphokinase increased: patients, % [2]: (10%)
- Blood creatine phosphokinase increased: patients, number [2]: 18
- Constipation: patients, % [2]: (37%)
- Constipation: patients, number [2]: 67
- Cough: patients, % [2]: (21%)
- Cough: patients, number [2]: 37
- Decreased appetite: patients, % [2]: (35%)
- Decreased appetite: patients, number [2]: 62
- Diarrhea: patients, % [2]: (30%)
- Diarrhea: patients, number [2]: 53
- Dizziness: patients, % [2]: (16%)
- Dizziness: patients, number [2]: 29
- Dry skin: patients, % [2]: (21%)
- Dry skin: patients, number [2]: 37
- Dysgeusia: patients, % [2]: (11%)
- Dysgeusia: patients, number [2]: 20
- Dyspnea: patients, % [2]: (20%)
- Dyspnea: patients, number [2]: 36
- Fatigue: patients, % [2]: (55%)
- Fatigue: patients, number [2]: 98
- Headache: patients, % [2]: (19%)
- Headache: patients, number [2]: 34
- Hypertension: patients, % [2]: (21%)
- Hypertension: patients, number [2]: 38
- Hypokalaemia: patients, % [2]: (15%)
- Hypokalaemia: patients, number [2]: 26
- Hypomagnesaemia: patients, % [2]: (10%)
- Hypomagnesaemia: patients, number [2]: 18
- Hypophosphataemia: patients, % [2]: (14%)
- Hypophosphataemia: patients, number [2]: 25
- Insomnia: patients, % [2]: (12%)
- Insomnia: patients, number [2]: 21
- Lipase increased: patients, % [2]: (29%)
- Lipase increased: patients, number [2]: 51
- Muscle spasms: patients, % [2]: (26%)
- Muscle spasms: patients, number [2]: 47
- Myalgia: patients, % [2]: (44%)
- Myalgia: patients, number [2]: 79
- Nausea: patients, % [2]: (44%)
- Nausea: patients, number [2]: 78
- Pain in extremity: patients, % [2]: (11%)
- Pain in extremity: patients, number [2]: 19
- Palmar-plantar erythrodysaesthesia syndrome: patients, % [2]: (40%)
- Palmar-plantar erythrodysaesthesia syndrome: patients, number [2]: 72
- Pruritus: patients, % [2]: (10%)
- Pruritus: patients, number [2]: 18
- Rash maculo-papular: patients, % [2]: (10%)
- Rash maculo-papular: patients, number [2]: 18
- Rash: patients, % [2]: (15%)
- Rash: patients, number [2]: 27
- Seborrhoeic keratosis: patients, % [2]: (12%)
- Seborrhoeic keratosis: patients, number [2]: 21
- Skin papilloma: patients, % [2]: (10%)
- Skin papilloma: patients, number [2]: 17
- Upper respiratory tract infection: patients, % [2]: (10%)
- Upper respiratory tract infection: patients, number [2]: 18
- Urinary tract infection: patients, % [2]: (11%)
- Urinary tract infection: patients, number [2]: 20
- Vision blurred: patients, % [2]: (10%)
- Vision blurred: patients, number [2]: 17
- Vomiting: patients, % [2]: (25%)
- Vomiting: patients, number [2]: 44
- Weight decreased: patients, % [2]: (29%)
- Weight decreased: patients, number [2]: 52
- Tolerability (GIST patients): generally well tolerated
- Abdominal pain: patients, number (head not printed (Grade 3/4)): 11
- Actinic keratosis: patients, % (head not printed (Grade 3/4)): (0%)
- Actinic keratosis: patients, number (head not printed (Grade 3/4)): 0
- Alopecia: patients, % (head not printed (Grade 3/4)): (0%)
- Alopecia: patients, number (head not printed (Grade 3/4)): 0
- Amylase increased: patients, % (head not printed (Grade 3/4)): (1%)
- Amylase increased: patients, number (head not printed (Grade 3/4)): 2
- Anemia: patients, number (head not printed (Grade 3/4)): 20
- Arthralgia: patients, % (head not printed (Grade 3/4)): (0%)
- Arthralgia: patients, number (head not printed (Grade 3/4)): 0
- Back Pain: patients, % (head not printed (Grade 3/4)): (1%)
- Back Pain: patients, number (head not printed (Grade 3/4)): 2
- Blood bilirubin increase: patients, % (head not printed (Grade 3/4)): (3%)
- Blood bilirubin increase: patients, number (head not printed (Grade 3/4)): 5
- Blood creatine phosphokinase increased: patients, % (head not printed (Grade 3/4)): (3%)
- Blood creatine phosphokinase increased: patients, number (head not printed (Grade 3/4)): 5
- Constipation: patients, % (head not printed (Grade 3/4)): (0%)
- Constipation: patients, number (head not printed (Grade 3/4)): 0
- Cough: patients, % (head not printed (Grade 3/4)): (0%)
- Cough: patients, number (head not printed (Grade 3/4)): 0
- Decreased appetite: patients, % (head not printed (Grade 3/4)): (1%)
- Decreased appetite: patients, number (head not printed (Grade 3/4)): 2
- Diarrhea: patients, % (head not printed (Grade 3/4)): (2%)
- Diarrhea: patients, number (head not printed (Grade 3/4)): 3
- Dizziness: patients, % (head not printed (Grade 3/4)): (0%)
- Dizziness: patients, number (head not printed (Grade 3/4)): 0
- Dry skin: patients, % (head not printed (Grade 3/4)): (0%)
- Dry skin: patients, number (head not printed (Grade 3/4)): 0
- Dysgeusia: patients, % (head not printed (Grade 3/4)): (0%)
- Dysgeusia: patients, number (head not printed (Grade 3/4)): 0
- Dyspnea: patients, % (head not printed (Grade 3/4)): (2%)
- Dyspnea: patients, number (head not printed (Grade 3/4)): 4
- Fatigue: patients, % (head not printed (Grade 3/4)): (2%)
- Fatigue: patients, number (head not printed (Grade 3/4)): 4
- Headache: patients, % (head not printed (Grade 3/4)): (1%)
- Headache: patients, number (head not printed (Grade 3/4)): 1
- Hypertension: patients, number (head not printed (Grade 3/4)): 13
- Hypokalaemia: patients, % (head not printed (Grade 3/4)): (3%)
- Hypokalaemia: patients, number (head not printed (Grade 3/4)): 5
- Hypomagnesaemia: patients, % (head not printed (Grade 3/4)): (0%)
- Hypomagnesaemia: patients, number (head not printed (Grade 3/4)): 0
- Hypophosphataemia: patients, % (head not printed (Grade 3/4)): (5%)
- Hypophosphataemia: patients, number (head not printed (Grade 3/4)): 8
- Insomnia: patients, % (head not printed (Grade 3/4)): (0%)
- Insomnia: patients, number (head not printed (Grade 3/4)): 0
- Lipase increased: patients, number (head not printed (Grade 3/4)): 33
- Muscle spasms: patients, % (head not printed (Grade 3/4)): (0%)
- Muscle spasms: patients, number (head not printed (Grade 3/4)): 0
- Myalgia: patients, % (head not printed (Grade 3/4)): (0%)
- Myalgia: patients, number (head not printed (Grade 3/4)): 0
- Nausea: patients, % (head not printed (Grade 3/4)): (1%)
- Nausea: patients, number (head not printed (Grade 3/4)): 1
- Pain in extremity: patients, % (head not printed (Grade 3/4)): (1%)
- Pain in extremity: patients, number (head not printed (Grade 3/4)): 1
- Palmar-plantar erythrodysaesthesia syndrome: patients, % (head not printed (Grade 3/4)): (1%)
- Palmar-plantar erythrodysaesthesia syndrome: patients, number (head not printed (Grade 3/4)): 1
- Pruritus: patients, % (head not printed (Grade 3/4)): (0%)
- Pruritus: patients, number (head not printed (Grade 3/4)): 0
- Rash maculo-papular: patients, % (head not printed (Grade 3/4)): (0%)
- Rash maculo-papular: patients, number (head not printed (Grade 3/4)): 0
- Rash: patients, % (head not printed (Grade 3/4)): (0%)
- Rash: patients, number (head not printed (Grade 3/4)): 0
- Seborrhoeic keratosis: patients, % (head not printed (Grade 3/4)): (0%)
- Seborrhoeic keratosis: patients, number (head not printed (Grade 3/4)): 0
- Skin papilloma: patients, % (head not printed (Grade 3/4)): (0%)
- Skin papilloma: patients, number (head not printed (Grade 3/4)): 0
- Upper respiratory tract infection: patients, % (head not printed (Grade 3/4)): (0%)
- Upper respiratory tract infection: patients, number (head not printed (Grade 3/4)): 0
- Urinary tract infection: patients, % (head not printed (Grade 3/4)): (2%)
- Urinary tract infection: patients, number (head not printed (Grade 3/4)): 4
- Vision blurred: patients, % (head not printed (Grade 3/4)): (0%)
- Vision blurred: patients, number (head not printed (Grade 3/4)): 0
- Vomiting: patients, % (head not printed (Grade 3/4)): (1%)
- Vomiting: patients, number (head not printed (Grade 3/4)): 2
- Weight decreased: patients, % (head not printed (Grade 3/4)): (1%)
- Weight decreased: patients, number (head not printed (Grade 3/4)): 1

— patent US12318373B2, “Methods of treating gastrointestinal stromal tumors” (Deciphera Pharmaceuticals, LLC, priority 2019, dated 2025)
